# Experimental data: PMC10876879, “Sustained silencing peanut allergy by xanthopurpurin is associated with suppression of peripheral and bone marrow IgE-producing B cell” (Frontiers in Immunology, 2024)
# Values joined by “and” are separate entries in the source; they are usually repeats but may differ in a detail not shown here. Identical values can stand only once.
# How the values were obtained:
# [1] = tested on: PN-allergic C3H/HeJ mice; assay: Peanut-allergic mouse models (Model #1 systemic i.p. sensitization, early treatment; Model #2 oral sensitization, late treatment) with oral PN challenge; type: in vivo; conditions: for Time after stopping treatment at which protection from anaphylaxis persisted: model #1
# [2] = tested on: IgE production by U266 cells; assay: IgE production by human myeloma U266 cells, IgE ELISA of supernatants; type: cell-based
# Protocol: The human myeloma cell line (U266), purchased from ATCC (American Type Culture Collection; Rockville, MD), has been used to test different herb extracts and purified compounds for their IgE inhibitory effects ([31]). 2×10^5 cells/mL of cells were cultured at 37°C under 5% CO2 in complete media containing RPMI 1640 medium supplemented, 10% FBS, 1 mM sodium pyruvate, 1×10^-5 M β-ME and 0.5% penicillin-streptomycin. XPP at 0, 2.5, 5, 10, 20 and 40 μg/mL were added at day 0. After 6 days, supernatants were harvested and IgE levels were measured by using an ELISA Kit (Mabtech Inc, OH). Briefly, samples and standards were added into prewashed 96-well plate coated with capture monoclonal antibodies (mAbs). After 2-hour incubation at room temperature, plate was washed 5 times and incubated with detection mAb for 1 hour. The plate was then washed for 5 times and incubated with streptavidin-HRP for 1hour at room temperature. The plate was then washed and developed with TMB substrate for 15 min. The optical density was measured using ELISA reader at 450nm. IgE concentrations were calculated based on the standard curve.
# S Figure 2. The IgE inhibitory effect of five fractions from R.cordifolia. U266 cells (2 × 10^5 cells/mL) were co-incubated with each fraction at the concentration of 10 μg/mL for 6 days. The supernatants were harvested and IgE levels were measured by ELISA. The inhibition percentage was calculated using the equation “% inhibition = (1- IgE level each fr / IgE level non-treated ) x 100%”.
# [3] = tested on: IL-4 promoter; assay: IL-4 promoter DNA methylation (CpG-393) in splenocytes of treated mice, bisulfite pyrosequencing; type: in vivo, C3H/HeJ mice; conditions: model #2, vs sham
# Text: Genomic DNA was isolated from mouse splenocytes collected from orally sensitized mouse model#2 using Qiagen mini DNA/RNA extraction kit (Qiagen, Valencia, CA). Isolated DNA was bisulfite-modified using an Epitect plus DNA Bisulfite kit (Qiagen) following the manufacturer’s instructions. Bisulfite converted DNA was then amplified with the IL-4 primers listed below by PCR. The PCR products were subsequently purified and pyrosequenced using sequencing primers on a Pyromark Q24 system (Qiagen) as described previously ([38]). Primers for IL-4; Fwd: […]; Rev-Biotin-[…]. Sequencing (CpG -393) […].
# [4] = tested on: splenocytes (SPCs) and mesenteric lymph node (MLN) cells; assay: Cytokines in CPE-stimulated splenocyte and MLN cell cultures from treated mice (Model #2), ELISA; type: in vivo, C3H/HeJ mice; conditions: model #2, CPE stimulation, vs sham
# Protocol: Mice were sacrificed at the end of each experiment. The splenocytes (SPCs) and mesenteric lymph node (MLN) cells of each mouse was collected as previously described ([37]). Cells (4 x10^6/well/mL) were cultured in 24 well plates in the presence or absence of CPE (200 µg/mL). After 72 hrs of incubation at 37°C under 5% CO2, supernatants were collected. Cytokine levels were measured using ELISA kits in triplicate according to the manufacturer’s instructions (BD Biosciences, San Jose, CA and R&D systems, Minneapolis, MN).
# [5] = tested on: naïve C3H/HeJ mice; assay: Acute toxicity assay; type: in vivo
# Protocol: (§1) For acute toxicity analysis, naïve C3H/HeJ mice were fed with 4 mg of XPP per mouse, which is10 times of the daily dose. […] In the sub-chronic toxicity assay, naïve C3H/HeJ mice were fed with 5 times their daily therapeutic dose (2 mg/day) for 14 days. Control group mice (sham) were fed with water. Blood samples were collected at the end of each experiment. Blood urea nitrogen (BUN) and alanine aminotransferase (ALT) measurements for the evaluation of kidney and liver functions respectively and complete blood count (CBC) testing were performed by ALX laboratories, NY.
# [6] = tested on: IgG production by ARH-77 cells; assay: IgG production by ARH-77 cells, IgG ELISA; type: cell-based, human; conditions: XPP 2.5, 5, 10, 20, and 40 μg/mL
# Protocol: ARH-77, a human IgG-producing myeloma cell line, was purchased from ATCC (American Type Culture Collection; Manassas, VA). The culture media contains RPMI 1640 medium supplemented, 10% FBS, 1 mM sodium pyruvate, 1×10^-5 M β-ME and 0.5% penicillin-streptomycin. Cells were cultured at 37°C under 5% CO2. […] After 3 days, supernatants were harvested and IgG levels were determined using an ELISA Kit (Mabtech Inc, OH).
# [7] = tested on: naïve C3H/HeJ mice; assay: Sub-chronic toxicity assay; type: in vivo
# Protocol: as §1
# [8] = tested on: U266 cells; assay: RNA sequencing of XPP-treated U266 cells; type: cell-based, human; conditions: XPP 10 μg/mL, 3 days
# Protocol: U266 cells were treated with XPP at 10 μg/mL. After 3 days of treatment, cells were collected and total RNA was isolated using Qiagen RNeasy MiniKits following the manufacturer’s instructions. The purity of total RNA was analyzed and the RNA-Seq was performed with an Illumina HiSeq2500 instrument at the Genomics Core facility at Icahn School of Medicine at Mount Sinai. Counts were converted to Log2 counts per million and normalized. A log2 fold change was calculated and the gene list with values ≥ 2 or ≤ -2 were uploaded to DAVID bioinformatic system for functional analysis.
# [9] = tested on: U266 cells; assay: Cell viability of U266 cells by trypan blue exclusion; type: cell-based, human; conditions: all concentrations tested (2.5-40 µg/mL)
# Protocol: Cell viability was evaluated using a trypan blue exclusion as previously described ([31]). Briefly, a 10µL of cells suspension from each culture was mixed with equal volume of trypan blue dye. The mixture was loaded into a hemocytometer and cells were counted under a microscope. The percentage of viable cells was calculated as follows: Viable cells (%) = (total number of viable cells)/(total number of cells) × 100.
# [10] = model #1, 7 weeks after stopping therapy
# [11] = orally sensitized mouse model #2
# [12] = 10x dose (4 mg/mouse) once, observed 14 days
smiles,measurement,setting,value
"O=C1c2ccccc2C(=O)c2c(O)cc(O)cc21 [XPP, xanthopurpurin]",Body temperatures after PN challenge,"[1]; both models, 30 minutes after challenge, p < 0.001 vs. Sham",normal body temperatures
same,Reduction of PN-specific IgE levels at challenge vs. sham,"[1]; both models, oral XPP 400 µg/day",> 80% and 75%
same,Plasma histamine levels after PN challenge,"[1]; both models, p < 0.001",essentially normal plasma histamine levels
same,Symptom scores following PN challenge,"[1]; both models, score 0-5, p <0.001 vs. Sham",0
same,Time after stopping treatment at which protection from anaphylaxis persisted,[1],5 weeks
same,"Body temperatures, sustained effect",[1]; [10],increased
same,"PN-specific IgE levels, sustained effect",[1]; [10],significantly reduced
same,"Symptom scores, sustained effect",[1]; [10],significantly reduced
same,Time after stopping treatment at which protection from anaphylaxis persisted,[1]; listed as xanthopurpurin,7 weeks
same,Fecal PN-specific IgA,[1]; [11],did not reduce
same,Serum PN-specific IgG1,[1]; [11],did not reduce
same,Serum PN-specific IgG2a,[1]; [11],did not reduce
same,IC50,"[2]; Homo sapiens, U-266, 144 h, 6 days culture, IgE ELISA",9 µg/mL
same,XPP concentration at which complete inhibition of IgE production was observed,"[2]; U266 cells, 6 days",40 µg/mL
same,XPP concentration at which inhibition of IgE was first observed,"[2]; U266 cells, 6 days",2.5 µg/mL
same,XPP concentration reaching statistically significant inhibition of IgE,"[2]; U266 cells, 6 days, p < 0.01",10 µg/mL
same,IgE production by U266 cells,"[2]; XPP 2.5-40 µg/mL, 6 days",inhibited the IgE production by U266 cells in a dose-dependent manner
same,Percentages of CpG methylation for CpG-393 of IL-4 promoter,[3],showed an increase
same,IL-4 level in MLN cultures,[4]; 72 hrs,significantly inhibited IL-4 level
same,IL-4 level in splenocyte cultures,[4]; 72 hrs,significantly inhibited IL-4 level
same,IFN-γ production in MLN cultures,[4],no significant differences
same,IFN-γ production in SPC cultures,[4],no significant differences
same,IL-10 production in MLN cultures,[4],no significant differences
same,IL-10 production in SPC cultures,[4],no significant differences
same,"Deaths, abnormal behavior or diarrhea","[5]; 10 times (4 mg/day) once, observed daily for 14 days",No deaths and abnormal behavior or diarrhea were observed
same,Morbidity,[5]; [12],0.00%
same,Mortality,[5]; [12],0.00%
same,IgG production by ARH-77 cells,[6],didn’t show significant inhibition
same,"CBC: white blood cell, red blood cell, hemoglobin and platelet levels vs control group and normal range","[7]; mouse, in vivo",within the normal range and similar to the control group
same,"Deaths, abnormal behavior or diarrhea","[7]; sub-chronic, 5 times (2 mg/day) for 14 consecutive days",No deaths and abnormal behavior or diarrhea were observed either
same,Mortality,"[7]; sub-chronic, 5x dose (2 mg/day/mouse) for 14 days",0.00%
same,Number of genes downregulated (RNA-Seq),[8],5094 genes
same,Number of genes upregulated (RNA-Seq),[8],4009 genes
same,Toxicity / cell viability of U266 cells (trypan blue),[9],No toxicity was observed at any concentration tested
